In patent US12428415B2, “Matriptase 2 inhibitors and uses thereof” (Disc Medicine, Inc., priority 2018, dated 2025):

Each compound was assayed against T1, Human Recombinant Matriptase 2 (Homo sapiens, UniProt Q8IU80) (assay: Matriptase 2 fluorescence based inhibition assay, Method B (50 mM TRIS pH 7.5, 150 mM NaCl, 0.01% gelatin)). Details: 1 uM compound; Assay Used = B (Method B); read-out: Mar-2 % inhibition at 1 uM.
T1 construct: purchased Enzo Life Sciences (an in-house preparation was also used) ALX-201-752-1
T1 sequence (Q8IU80 1-811): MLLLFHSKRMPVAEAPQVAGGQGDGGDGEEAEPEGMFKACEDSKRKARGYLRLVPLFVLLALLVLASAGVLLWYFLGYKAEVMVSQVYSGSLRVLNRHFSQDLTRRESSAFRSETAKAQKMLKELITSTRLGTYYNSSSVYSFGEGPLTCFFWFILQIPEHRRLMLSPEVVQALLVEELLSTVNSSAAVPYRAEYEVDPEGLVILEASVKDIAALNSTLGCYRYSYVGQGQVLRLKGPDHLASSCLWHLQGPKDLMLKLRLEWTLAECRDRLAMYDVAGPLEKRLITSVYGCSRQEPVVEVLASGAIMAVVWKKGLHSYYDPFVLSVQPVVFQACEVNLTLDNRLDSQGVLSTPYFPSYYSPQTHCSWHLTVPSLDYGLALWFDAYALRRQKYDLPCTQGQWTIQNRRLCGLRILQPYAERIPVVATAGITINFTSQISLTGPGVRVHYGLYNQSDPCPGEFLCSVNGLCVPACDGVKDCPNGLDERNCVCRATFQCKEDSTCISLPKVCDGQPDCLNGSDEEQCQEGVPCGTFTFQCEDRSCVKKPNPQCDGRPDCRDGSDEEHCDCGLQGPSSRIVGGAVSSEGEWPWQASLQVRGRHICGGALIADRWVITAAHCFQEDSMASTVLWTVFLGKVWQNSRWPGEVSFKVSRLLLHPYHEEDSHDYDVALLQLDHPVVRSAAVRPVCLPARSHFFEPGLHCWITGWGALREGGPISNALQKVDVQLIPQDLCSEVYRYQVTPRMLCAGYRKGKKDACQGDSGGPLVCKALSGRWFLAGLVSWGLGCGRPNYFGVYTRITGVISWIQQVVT
Format: biochemical
In short: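 Fluorogenic substrate Boc-Gln-Ala-Arg-7-amido-4-methylcoumarin (100 μM) cleavage read at Ex 360/Em 480 nm 60 min after addition, following 30 min enzyme–compound preincubation at 25° C. Enzyme was 7 nM commercial or 15 nM in-house; DMSO 1%. IC50s fitted by non-linear sigmoidal regression.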

inhibition at 1 µM	Compound
75 to 100%	N=C(N)c1ccc2cc(-c3ncco3)n(Cc3cccc4ccccc34)c2c1 [Compound I-748, 1-(naphthalen-1-ylmethyl)-2-(oxazol-2-yl)-1H-indole-6-carboximidamide]
0 to 25%	N/C(=N\O)c1ccc2c(c1)cc(C(=O)O)n2Cc1cccc2ccccc12 [Compound I-660]
25 to 50%	CC(C)(C)OC(=O)Nc1cc2ccc(C(=N)N)cc2n1Cc1cc(S(=O)(=O)c2ccccc2)cc2ccccc12 [Compound I-603, tert-butyl (6-carbamimidoyl-1-((3-(phenylsulfonyl)naphthalen-1-yl)methyl)-1H-indol-2-yl)carbamate]
50 to 75%	N=C(N)c1ccc2cc(C(=O)N[C@H]3CC[C@H](Nc4ncccn4)CC3)n(Cc3cccc4ccccc34)c2c1 [Compound I-741]
50 to 75%	N=C(N)c1ccc2cc(C(=O)N[C@H]3CC[C@H](NC(N)=O)CC3)n(Cc3cccc4ccccc34)c2c1 [Compound I-736]
50 to 75%	CS(=O)(=O)Nc1cc2ccc(C(=N)N)cc2n1Cc1cccc2ccccc12 [Compound I-749, 2-(methylsulfonamido)-1-(naphthalen-1-ylmethyl)-1H-indole-6-carboximidamide]
50 to 75%	NCc1ccc2cc(C(=O)N[C@H]3CC[C@H](N)CC3)n(Cc3cc(Oc4ncccn4)cc4ccccc34)c2c1 [Compound I-605]
25 to 50%	CN(C)C(=O)c1cc2ccc(C(=N)N)cc2n1Cc1cccc2ccccc12 [Compound I-624]
0 to 25%	CC(C)OC(=O)NC(=N)c1ccc2cc(C(=O)O)n(Cc3cccc4ccccc34)c2c1 [Compound I-786]
50 to 75%	N=C(N)c1ccc2cc(C(=O)Nc3ccncc3)n(Cc3cccc4ccccc34)c2c1 [Compound I-763]
25 to 50%	N=C(N)c1ccc2cc(C(=O)O)n(Cc3ccc(Oc4ccccc4)c4ccccc34)c2n1 [Compound I-679]
50 to 75%	CC1CCCCN1CCCNC(=O)c1cc2ccc(C(=N)N)cc2n1Cc1cccc2ccccc12 (stereo not drawn) [Compound I-683]
0 to 25%	N=C(N)c1ccc2cc(C(=O)O)n(Cc3cc(Cc4ccccc4)cc4ccccc34)c2c1 [Compound I-649]
25 to 50%	N=C(N)c1ccc2cc(N3CCOC3=O)n(Cc3cccc4ccccc34)c2c1 [Compound I-726, 1-(naphthalen-1-ylmethyl)-2-(2-oxooxazolidin-3-yl)-1H-indole-6-carboximidamide]
75 to 100%	N=C(N)c1ccc2cc(C(=O)N[C@H]3CC[C@H](N)CC3)n(Cc3cc(C(=O)OCc4ccccc4)cc4ccccc34)c2c1 [Compound I-774]
50 to 75%	CC(C)(C)S(=O)(=O)c1cccc2c(Cn3c(C(=O)N[C@H]4CC[C@H](N)CC4)cc4ccc(C(=N)N)cc43)cccc12 [Compound I-742]
75 to 100%	N=C(N)c1ccc2cc(C(=O)O[C@H]3CC[C@@H](N)CC3)n(Cc3cccc4ccccc34)c2c1 [Compound I-744]
25 to 50%	N=C(N)c1cc2c(cn1)cc(C(=O)O)n2Cc1cccc2ccccc12 [Compound I-706]
0 to 25%	CCOC(=O)NC(=N)c1ccc2cc(C(=O)O)n(Cc3cccc4ccccc34)c2c1 [Compound I-712]
75 to 100%	N=C(N)c1ccc2cc(C(=O)N[C@H]3CC[C@H](N)CC3)n(Cc3cc(Oc4ccccn4)cc4ccccc34)c2c1 [Compound I-599]
75 to 100%	N=C(N)c1ccc2cc(C(=O)N[C@H]3CC[C@H](N)CC3)n(-c3cc(CO)c4ccccc4c3)c2c1 [Compound I-681]
75 to 100%	N=C(N)c1ccc2cc(C(=O)N[C@H]3CC[C@H](N)CC3)n(Cc3cc(Oc4ccsc4)cc4ccccc34)c2c1 [Compound I-631]
0 to 25%	CCOC(=O)c1cc2ccc(C(=N)NC(=O)OCC(C)C)cc2n1Cc1cc(Oc2ncccn2)cc2ccccc12 [Compound I-607]

Same assay, conditions: 1 uM compound; Assay Used = B; read-out: Mar-2 % inhibition at 1 uM

inhibition at 1 µM	Compound
0 to 25%	CC(C)(C)OC(=O)NC(=N)c1ccc2cc(C(=O)Nc3ccc(NC(=O)c4ccccn4)cc3)n(Cc3cccc4ccccc34)c2c1 [Compound I-419]
75 to 100%	N=C(N)c1cc(F)c2cc(C(=O)O)n(Cc3cc(Oc4ncccn4)cc4ccccc34)c2c1 [Compound I-569, 6-carbamimidoyl-4-fluoro-1-((3-(pyrimidin-2-yloxy)naphthalen-1-yl)methyl)-1H-indole-2-carboxylic Acid]
25 to 50%	N=C(N)c1ccc2cc(C(=O)NC34CC5C[C@H](C3)C[C@](O)(C5)C4)n(Cc3cccc4ccccc34)c2c1 (stereo in doubt) [Compound I-449]
50 to 75%	N=C(N)c1ccc2cc(C(=O)NCC3(C(N)=O)CCCCC3)n(Cc3cccc4ccccc34)c2c1 [Compound I-464]
75 to 100%	N=C(N)c1ccc2cc(C(=O)O[C@H]3CC[C@H](N)CC3)n(Cc3cccc4ccccc34)c2c1 [Compound I-485, (1r,4r)-4-aminocyclohexyl 6-carbamimidoyl-1-(naphthalen-1-ylmethyl)-1H-indole-2-carboxylate]
50 to 75%	N=C(N)c1ccc2cc(C(=O)N[C@H]3CC[C@H](N)CC3)n(Cc3cccc4cnccc34)c2c1 [Compound I-504]
0 to 25%	CCNC(=N)c1ccc2cc(C(=O)N[C@H]3CC[C@H](NC(=O)OC(C)(C)C)CC3)n(Cc3ccc4ccccc4c3)c2c1 [Compound I-411, Tert-butyl ((1r,4r)-4-(6-(N-ethylcarbamimidoyl)-1-(naphthalen-2-ylmethyl)-1H-indole-2-carboxamido)cyclohexyl)carbamate]
0 to 25%	N=C(NC(=O)OCC(Cl)(Cl)Cl)c1ccc2cc(C(=O)O)n(Cc3cc(Oc4ncccn4)cc4ccccc34)c2c1 [Compound I-552]
75 to 100%	CN1CCC(NC(=O)c2cc3ccc(C(=N)N)cc3n2Cc2cccc3ccccc23)CC1 [Compound I-432]
25 to 50%	N=C(N)c1ccc2cc(C(=O)NC3CCCCC3)n(Cc3cccc4ccccc34)c2c1 [Compound I-438]
0 to 25%	N=C(N)c1ccc2cc(S(=O)(=O)N(Cc3cccc4ccccc34)[C@H]3CC[C@H](N)CC3)n(Cc3cccc4ccccc34)c2c1 [Compound I-523]
50 to 75%	N=C(N)c1ccc2c(F)c(C(=O)O)n(Cc3cccc4ccccc34)c2c1 [Compound I-577, 6-carbamimidoyl-3-fluoro-1-(naphthalen-1-ylmethyl)-1H-indole-2-carboxylic Acid]
25 to 50%	NCc1ccc2cc(C(=O)NCC3CCNCC3)n(Cc3cccc4ccccc34)c2c1 [Compound I-534]
25 to 50%	CCOC(=O)NC(=N)c1ccc2cc(C(=O)OCC)n(Cc3cc(Oc4ncccn4)cc4ccccc34)c2c1 [Compound I-559]
50 to 75%	N=C(N)c1ccc2cc(C(=O)O)n(Cc3cc(S(=O)(=O)Nc4ccccc4)cc4ccccc34)c2c1 [Compound I-585]
0 to 25%	N=C(N)c1ccc2c(CO)c(C(=O)N[C@H]3CC[C@H](N)CC3)n(Cc3cccc4ccccc34)c2c1 [Compound I-516, N-((1r,4r)-4-aminocyclohexyl)-6-carbamimidoyl-3-(hydroxymethyl)-1-(naphthalen-1-ylmethyl)-1H-indole-2-carboxamide]
75 to 100%	N=C(N)c1ccc2cc(C(=O)N[C@H]3CC[C@H](O)CC3)n(Cc3cccc4ccccc34)c2c1 [Compound I-440]
25 to 50%	N=C(N)c1ccc2cc(C(=O)N3CCC(CO)CC3)n(Cc3cccc4ccccc34)c2c1 [Compound I-444]
75 to 100%	N=C(N)c1ccc2cc(C(=O)N[C@@H]3CCNC3)n(Cc3cccc4ccccc34)c2c1 [Compound I-433]
50 to 75%	N=C(N)c1ccc2cc(C(=O)N3CCN(C(=O)CN)CC3)n(Cc3cccc4ccccc34)c2c1 [Compound I-431]
25 to 50%	Cc1ccnc(Oc2cc(Cn3c(C(=O)O)cc4ccc(C(=N)N)cc43)c3ccccc3c2)n1 [Compound I-566]

Compound	inhibition at 1 µM
CC(C)(C)OC(=O)NCc1ccc2cc(C(=O)O)n(Cc3cccc4ccccc34)c2c1 [Compound I-539, 6-(((tert-butoxycarbonyl)amino)methyl)-1-(naphthalen-1-ylmethyl)-1H-indole-2-carboxylic Acid]	0 to 25%

Same assay, conditions: compound at 1 uM; Assay Used: B; read-out: Mar-2 % inhibition at 1 uM

inhibition at 1 µM	Compound
50 to 75%	CN(C)CCCOc1ccc2c(Cn3c(C(=O)O)cc4ccc(C(=N)N)cc43)cccc2c1 [Compound I-808]
25 to 50%	Cc1cccc2sc(Cn3c(C(=O)N[C@H]4CC[C@H](N)CC4)cc4ccc(C(=N)N)cc43)cc12 [Compound I-820]

Same assay, conditions: read-out: Mar-2 % inhibition at 1 uM

Compound	inhibition at 1 µM
CN1CCC(NC(=O)c2cc3ccc(C(=N)NC(=O)Oc4ccc(F)cc4)cc3n2Cc2cc(Oc3ncccn3)cc3ccccc23)CC1 [Compound I-545]	25 to 50%
